Patent EP1891955A1, “Use of 1,2,3-substituted indolizine derivatives, inhibitors of FGFs, for the preparation of a medicament intended for the treatment of degenerative joint diseases” (Sanofi-Aventis, priority 2006, dated 2008)
Marks after values point to notes of the source that are not given here.

Test system: STR/1N mice
Assay: Knee joint damage in STR/1N mice developing osteoarthritis spontaneously (semi-quantitative histopathological score)
Format: in vivo
Settings: male STR/1N mice, 6-week treatment
Protocol: The effect of an FGF-antaqonist on the degree of knee joint damage in STR/1N mice, which develop osteoarthritis spontaneously
The experiment was performed according to the regulations of the German Animal Protection Law. Fifty 9-week old male STR/1N mice (strain bred and maintained at sanofi-aventis, Dept. of Laboratory Animal Safety and Welfare, D-65926 Frankfurt/Main, Germany) were randomized to 2 experimental groups (n=25/group). The animals were housed individually in standard mouse cages (room temperature 20 - 22°C; relative humidity 55-75%; 12 hours light/dark cycle) with free access to the powdered mouse standard food (Sniff R/M-H, Soest, Germany) and tap water. To achieve sustained drug exposure, the sodium 2-amino-5-[(1-methoxy-2-methylindolizin-3-yl)carbonyl]benzoic acid monohydrate was blended with the standard food at concentrations of 300 ppm (0.3 g/kg food) and administered to one experimental group of 25 mice ad libitum. The control group of 25 mice received unsupplemented standard food. Following the 6-week treatment period the animals were sacrificed by CO2 inhalation, their left knee joints were removed and decalcified for 3 days with formic acid (decalcifier, Shandon, Frankfurt/M., Germany), fixed in formalin and embedded in paraffin. Four sequential coronal sections of the complete knee joints (7 µm, 0.1 mm apart), stained with Hematoxyline-Eosine and Saffranin-O were evaluated by a blinded observer for the degree of histopathological joint alterations by using a semi-quantitative score as described in Table 1. Table 1: Semiquantitative Histopathological Score of Osteoarthritic Joint Damage in STR/1N Mice
The osteoarthritis joint damage was assessed by a semi-quantitative histopathological score. The STR/1N mice developed moderate osteoarthritis in the medial tibial plateau of the knee joint.

For `COc1c(C)c(C(=O)c2ccc(N)c(C(=O)O)c2)n2ccccc12.O.[Na]` [sodium 2-amino-5-[(1-methoxy-2-methylindolizin-3-yl)carbonyl]benzoic acid monohydrate], the “Histopathological Score Mean (SEM)” value (300 ppm (0.3 g/kg food) in food ad libitum, left knee joint, maximal total joint score = 128, p = 0.0118 Mann Whitney Test vs control 34.3 (3.8)) was 23.5 (3.7)*, the tolerability (300 ppm in food) was “well tolerated” and the “reduction of the degree of histopathological joint damage” value (300 ppm in food, versus non-treated control) was 32%.
